The assay concerns the target Ras-related protein Rab-7a (Canis lupus familiaris, UniProt P18067). The assay can be described thus: analogs blocking nucleotide binding to wildtype Rab7 – biochemical, oxadiazole analogs, multiplex bead flow cytometry, SAR follow-up (AID 2031). To be noted: inactive by the depositor's call.

Here are results for two compounds from BindingDB's records for doi:10.7270/Q29885F3 (Nmmlsc, 2009).

In general, Ki refers to the dissociation constant of the complex between target and ligand, obtained from inhibition or displacement. Low values mean higher affinity, high ones lower affinity.

Ras-related protein Rab-7a, sequence (P18067 whole entry): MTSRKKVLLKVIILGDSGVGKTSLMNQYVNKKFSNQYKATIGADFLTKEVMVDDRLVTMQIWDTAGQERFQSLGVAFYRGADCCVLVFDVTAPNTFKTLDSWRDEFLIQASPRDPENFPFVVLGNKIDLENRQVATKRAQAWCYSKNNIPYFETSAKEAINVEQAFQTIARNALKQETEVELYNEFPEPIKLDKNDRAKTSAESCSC

`COc1ccc(-c2noc(CCC(=O)N3CCN(c4cccc(C)c4C)CC3)n2)cc1` [1-[4-(2,3-dimethylphenyl)-1-piperazinyl]-3-[3-(4-methoxyphenyl)-1,2,4-oxadiazol-5-yl]-1-propanone]: the affinity corresponds to a Ki of 100 nM.
Turning to `Cc1ccc(C)c(N2CCN(C(=O)CCc3nc(-c4ccc(Br)cc4)no3)CC2)c1` [UNM-0000306072], affinity was put at a Ki of 100 nM.
